Laboratory results reported in patent publication US20250215030A1, “STAT MODULATORS AND USES THEREOF” (Recludix Pharma, Inc., priority 2022, published 2025).
pIC50: −log10 of the molar value.

What was measured:
[1] = molecular target: T1, Recombinant STAT3 protein (STAT3(G127-I722)) (Homo sapiens, UniProt P40763); assay: STAT3 Fluorescence Polarization (FP) Assay; type: binding; conditions: STAT3(G127-I722) 25 nM, probe 5-FAM-GpYLPQTV-NH2 2 nM, 45-minute incubation
T1 construct: STAT3(G127-I722)
T1 sequence (P40763 127-722, species assumed): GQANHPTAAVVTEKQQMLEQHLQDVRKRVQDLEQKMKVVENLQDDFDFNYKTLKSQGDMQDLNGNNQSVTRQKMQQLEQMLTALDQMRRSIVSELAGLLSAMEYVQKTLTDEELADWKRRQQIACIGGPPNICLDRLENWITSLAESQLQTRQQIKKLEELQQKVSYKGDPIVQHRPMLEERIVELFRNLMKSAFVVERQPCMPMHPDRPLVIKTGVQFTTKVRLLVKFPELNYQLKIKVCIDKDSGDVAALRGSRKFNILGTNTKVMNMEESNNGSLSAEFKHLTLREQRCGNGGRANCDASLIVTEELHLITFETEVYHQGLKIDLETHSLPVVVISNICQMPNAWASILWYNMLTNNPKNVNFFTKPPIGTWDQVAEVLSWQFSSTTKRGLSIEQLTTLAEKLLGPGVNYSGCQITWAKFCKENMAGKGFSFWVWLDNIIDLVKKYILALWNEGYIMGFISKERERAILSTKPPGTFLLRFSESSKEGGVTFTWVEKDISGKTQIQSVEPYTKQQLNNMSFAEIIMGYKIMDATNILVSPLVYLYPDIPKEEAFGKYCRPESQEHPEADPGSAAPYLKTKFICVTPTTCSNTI
Procedure, shortened: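 STAT3(G127-I722) at 25 nM and 5-FAM-GpYLPQTV-NH2 probe at 2 nM in HEPES pH 7.4 buffer with NaCl, EDTA, Tween 20, DTT; 1% DMSO. FP read after 45 min at room temperature; IC50 by nonlinear regression of mP vs log concentration, binned A ≤100 nM to D >10 μM.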

[2] = molecular target: T2, Recombinant STAT6 protein (STAT6(W123-T658)) (Homo sapiens, UniProt P42226); assay: STAT6 Fluorescence Polarization (FP) Assay; type: binding; conditions: STAT6(W123-T658) 250 nM, probe 5-FAM-ApYKPFQDLI-NH2 2 nM, 45-minute incubation
T2 construct: STAT6(W123-T658)
T2 sequence (P42226 123-658): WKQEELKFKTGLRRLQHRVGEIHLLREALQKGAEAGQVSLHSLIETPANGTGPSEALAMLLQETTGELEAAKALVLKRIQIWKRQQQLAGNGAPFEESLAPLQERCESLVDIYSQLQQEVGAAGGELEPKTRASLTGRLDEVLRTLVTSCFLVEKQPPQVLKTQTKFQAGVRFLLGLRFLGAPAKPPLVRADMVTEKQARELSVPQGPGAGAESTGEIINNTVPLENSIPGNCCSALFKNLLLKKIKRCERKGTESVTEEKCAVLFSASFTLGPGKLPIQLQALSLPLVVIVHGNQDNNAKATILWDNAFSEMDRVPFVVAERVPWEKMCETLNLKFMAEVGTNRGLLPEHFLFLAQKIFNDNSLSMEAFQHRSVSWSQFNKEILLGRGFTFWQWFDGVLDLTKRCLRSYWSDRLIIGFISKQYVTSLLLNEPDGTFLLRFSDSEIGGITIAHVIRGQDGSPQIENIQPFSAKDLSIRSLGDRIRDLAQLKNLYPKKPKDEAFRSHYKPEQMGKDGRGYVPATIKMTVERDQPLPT
Procedure, shortened: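 STAT6 (W123-T658) at 250 nM mixed with 2 nM 5-FAM-ApYKPFQDLI-NH2 probe in HEPES pH 7.4 buffer with DTT and Tween 20, 1% DMSO final. Polarization read after 45 min at room temperature; IC50 by nonlinear regression of mP versus log concentration, reported in bins A–D.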

O=C(N[C@H]1C[C@@H]2C[C@@H]2C[C@H]2CC[C@@H](C(=O)N3CC(c4ccccc4)C3)N2C1=O)c1cc2cc(C(F)P(=O)(O)O)ccc2s1 (stereo partly drawn) [Example 390, (fluoro(2-(((3S,6S,7aS,8aR,9aR)-5-oxo-3-(3-phenylazetidine-1-carbonyl)decahydro-1H-cyclopropa[d]pyrrolo[1,2-a]azocin-6-yl)carbamoyl)benzo[b]thiophen-5-yl)methyl)phosphonic acid]
pIC50 [1]: 6.00 to 7.00 | pIC50 [2]: 4.52 to 5.52

C[C@@]12C[C@H]3CC[C@@H](C(=O)N4CC(c5cccnc5)C4)N3C(=O)[C@@H](NC(=O)c3cc4cc(C(F)(F)P(=O)(O)O)ccc4s3)C[C@@H]1C2 [Example 230, (difluoro(2-(((3S,6S,7aS,8aR,9aR)-8a-methyl-5-oxo-3-(3-(pyridin-3-yl)azetidine-1-carbonyl)decahydro-1H-cyclopropa[d]pyrrolo[1,2-a]azocin-6-yl)carbamoyl)benzo[b]thiophen-5-yl)methyl)phosphonic acid]
pIC50 [1]: > 7.00 | pIC50 [2]: 5.52 to 6.52

CS(=N)(=O)CC1CN(C(=O)[C@@H]2CC[C@@H]3C[C@@H]4C[C@@H]4C[C@H](NC(=O)c4cc5cc(C(F)(F)P(=O)(O)O)ccc5s4)C(=O)N32)C1 (stereo partly drawn) [Compound 83, (difluoro(2-(((3S,6S,7aR,8aS,9aR)-3-(3-((S-methysulfonimidoyl)methyl)azetidine-1-carbonyl)-5-oxodecahydro-1H-cyclopropa[d]pyrrolo[1,2-a]azocin-6-yl)carbamoyl)benzo[b]thiophen-5-yl)methyl)phosphonic acid]
pIC50 [1]: > 7.00 | pIC50 [2]: 4.52 to 5.52

O=C(N[C@H]1C[C@H]2C[C@H]2C[C@H]2CC[C@@H](C(=O)N[C@H]3CN(c4cccnc4)C[C@H]3F)N2C1=O)c1cc2cc(C(F)(F)P(=O)(O)O)ccc2s1 [Compound 129, (difluoro(2-(((3S,6S,7aR,8aS,9aR)-3-(((3S,4R)-4-fluoro-1-(pyridin-3-yl)pyrrolidin-3-yl)carbamoyl)-5-oxodecahydro-1H-cyclopropa[d]pyrrolo[1,2-a]azocin-6-yl)carbamoyl)benzo[b]thiophen-5-yl)methyl)phosphonic acid]
pIC50 [1]: > 7.00 | pIC50 [2]: 4.52 to 5.52

O=C(N[C@H]1C[C@@H]2C[C@@H]2C[C@H]2CC[C@@H](C(=O)N3CC(F)(c4ccccc4)C3)N2C1=O)c1cc2cc(C(F)(F)P(=O)(O)O)ccc2s1 [Compound 64, (difluoro(2-(((3S,6S,7aS,8aR,9aR)-3-(3-fluoro-3-phenylazetidine-1-carbonyl)-5-oxodecahydro-1H-cyclopropa[d]pyrrolo[1,2-a]azocin-6-yl)carbamoyl)benzo[b]thiophen-5-yl)methyl)phosphonic acid]
pIC50 [1]: > 7.00 | pIC50 [2]: 5.52 to 6.52

CC(c1ccc2sc(C(=O)N[C@H]3C[C@@H]4C[C@@H]4C[C@H]4CC[C@@H](C(=O)N5CC(C(=O)N6CCOCC6)C5)N4C3=O)cc2c1)P(=O)(O)O (stereo partly drawn) [Compound 35, (1-(2-(((3S,6S,7aS,8aR,9aR)-3-(3-(morpholine-4-carbonyl)azetidine-1-carbonyl)-5-oxodecahydro-1H-cyclopropa[d]pyrrolo[1,2-a]azocin-6-yl)carbamoyl)benzo[b]thiophen-5-yl)ethyl)phosphonic acid]
pIC50 [1]: 6.00 to 7.00 | pIC50 [2]: < 4.52

Cc1ncccc1C1CN(C(=O)[C@@H]2CC[C@@H]3C[C@@H]4C[C@@H]4C[C@H](NC(=O)c4cc5cc(C(F)(F)P(=O)(O)O)ccc5s4)C(=O)N32)C1 [Compound 55, (difluoro(2-(((3S,6S,7aR,8aS,9aR)-3-(3-(2-methylpyridin-3-yl)azetidine-1-carbonyl)-5-oxodecahydro-1H-cyclopropa[d]pyrrolo[1,2-a]azocin-6-yl)carbamoyl)benzo[b]thiophen-5-yl)methyl)phosphonic acid]
pIC50 [1]: > 7.00 | pIC50 [2]: 4.52 to 5.52

O=C(N[C@H]1C[C@@H]2C[C@@H]2C[C@H]2CC[C@@H](C(=O)N3CCN(C4CCOCC4)CC3)N2C1=O)c1cc2cc(C(F)(F)P(=O)(O)O)ccc2s1 [Compound 115, (difluoro(2-(((3S,6S,7aS,8aR,9aR)-5-ox0-3-(4-(tetrahydro-2H-pyran-4-yl)piperazine-1-carbonyl)decahydro-1H-cyclopropa[d]pyrrolo[1,2-a]azocin-6-yl)carbamoyl)benzo[b]thiophen-5-yl)methyl)phosphonic acid]
pIC50 [1]: 6.00 to 7.00 | pIC50 [2]: 5.52 to 6.52

O=C(N[C@H]1C[C@@H]2C[C@@H]2C[C@H]2CC[C@@H](C(=O)N3CC4C3CCN4c3cccnc3)N2C1=O)c1cc2cc(C(F)(F)P(=O)(O)O)ccc2s1 (stereo partly drawn) [Example 274, (difluoro(2-(((3S,6S,7aS,8aR,9aR)-5-oxo-3-(2-(pyridin-3-yl)-2,6-diazabicyclo[3.2.0]heptane-6-carbonyl)decahydro-1H-cyclopropa[d]pyrrolo[1,2-a]azocin-6-yl)carbamoyl)benzo[b]thiophen-5-yl)methyl)phosphonic acid]
pIC50 [1]: > 7.00 | pIC50 [2]: 5.52 to 6.52

Cc1cc(C2CN(C(=O)[C@@H]3CC[C@@H]4C[C@H]5C[C@H]5C[C@H](NC(=O)c5cc6cc(C(F)P(=O)(O)O)ccc6s5)C(=O)N43)C2)no1 (stereo partly drawn) [Example 337, (fluoro(2-(((3S,6S,7aS,8aR,9aR)-3-(3-(5-methylisoxazol-3-yl)azetidine-1-carbonyl)-5-oxodecahydro-1H-cyclopropa[d]pyrrolo[1,2-a]azocin-6-yl)carbamoyl)benzo[b]thiophen-5-yl)methyl)phosphonic acid]
pIC50 [1]: > 7.00 | pIC50 [2]: 4.52 to 5.52

COC1(c2nccn2C)CN(C(=O)[C@@H]2CC[C@@H]3CC4(C)CC4C[C@H](NC(=O)c4cc5cc(C(F)(F)P(=O)(O)O)ccc5s4)C(=O)N32)C1 (stereo in doubt) [Example 239, (difluoro(2-(((3S,6S,7aR,8aS,9aR)-3-(3-methoxy-3-(1-methyl-1H-imidazol-2-yl)azetidine-1-carbonyl)-8a-methyl-5-oxodecahydro-1H-cyclopropa[d]pyrrolo[1,2-a]azocin-6-yl)carbamoyl)benzo[b]thiophen-5-yl)methyl)phosphonic acid]
pIC50 [1]: > 7.00 | pIC50 [2]: 4.52 to 5.52

CC(=O)N1CCC2C1CN2C(=O)[C@@H]1CC[C@@H]2C[C@H]3C[C@H]3C[C@H](NC(=O)c3cc4cc(CP(=O)(O)O)ccc4s3)C(=O)N21 (stereo partly drawn) [Example 271, ((2-(((3S,6S,7aS,8aR,9aR)-3-(2-acetyl-2,6-diazabicyclo[3.2.0]heptane-6-carbonyl)-5-oxodecahydro-1H-cyclopropa[d]pyrrolo[1,2-a]azocin-6-yl)carbamoyl)benzo[b]thiophen-5-yl)methyl)phosphonic acid]
pIC50 [1]: 5.00 to 6.00 | pIC50 [2]: < 4.52

C[C@]12CC[C@H](NC(=O)c3cc4cc(C(F)(F)P(=O)(O)O)ccc4s3)C(=O)N3[C@H](CC[C@H]3C(=O)N3CC(c4cccnc4)C3)[C@H]1C2 [Example 234, (difluoro(2-(((3S,6S,8aR,9aS,9bR)-8a-methyl-5-oxo-3-(3-(pyridin-3-yl)azetidine-1-carbonyl)decahydro-1H-cyclopropa[c]pyrrolo[1,2-a]azocin-6-yl)carbamoyl)benzo[b]thiophen-5-yl)methyl)phosphonic acid]
pIC50 [1]: > 7.00 | pIC50 [2]: 4.52 to 5.52

O=C(N[C@H]1C[C@@H]2C[C@@H]2C[C@H]2CC[C@@H](C(=O)N3CC(Oc4cccnc4)C3)N2C1=O)c1cc2cc(CP(=O)(O)O)ccc2s1 [Example 350, ((2-(((3S,6S,7aS,8aR,9aR)-5-oxo-3-(3-(pyridin-3-yloxy)azetidine-1-carbonyl)decahydro-1H-cyclopropa[d]pyrrolo[1,2-a]azocin-6-yl)carbamoyl)benzo[b]thiophen-5-yl)methyl)phosphonic acid]
pIC50 [1]: 6.00 to 7.00 | pIC50 [2]: 4.52 to 5.52

O=C(N[C@H]1C[C@@H]2C[C@@H]2C[C@H]2CC[C@@H](C(=O)N3CC(c4ncccn4)C3)N2C1=O)c1cc2cc(C(F)(F)P(=O)(O)O)ccc2s1 [Compound 65, (difluoro(2-(((3S,6S,7aS,8aR,9aR)-5-oxo-3-(3-(pyrimidin-2-yl)azetidine-1-carbonyl)decahydro-1H-cyclopropa[d]pyrrolo[1,2-a]azocin-6-yl)carbamoyl)benzo[b]thiophen-5-yl)methyl)phosphonic acid]
pIC50 [1]: > 7.00 | pIC50 [2]: 4.52 to 5.52

NC(=O)Cc1cc(-c2ccccc2)ccc1NC(=O)[C@@H]1CC[C@@H]2C[C@H]3C[C@H]3C[C@H](NC(=O)c3cc4cc(C(F)(F)P(=O)(O)O)ccc4s3)C(=O)N21 [Compound 26, ((2-(((3S,6S,7aS,8aR,9aR)-3-((3-(2-amino-2-oxoethyl)-[1,1′-biphenyl]-4-yl)carbamoyl)-5-oxodecahydro-1H-cyclopropa[d]pyrrolo[1,2-a]azocin-6-yl)carbamoyl)benzo[b]thiophen-5-yl)difluoromethyl)phosphonic acid]
pIC50 [1]: > 7.00 | pIC50 [2]: 5.52 to 6.52
